Laboratory results: patent publication US20160137639A1, “TRIAZOLE-ISOXAZOLE COMPOUND AND MEDICAL USE THEREOF” (JAPAN TOBACCO INC., priority 2012, published 2016)
Where two headings read alike, the source gives them in different places.

How the values were obtained:
[1] = target: T1, human RORγ (Homo sapiens, UniProt P51449); experiment: Luciferase reporter gene assay of inhibitory effect against RORγ transcriptional activity (GAL4-hRORγ plasmid in CHO cells); assay type: cell-based
T1 construct: human, NM_005060.3 and from Ser253 to Lys518; expressed in transfected cells; host or cells: CHO cells (transient co-transfection with pG5-Luc reporter)
T1 sequence (P51449 253-518): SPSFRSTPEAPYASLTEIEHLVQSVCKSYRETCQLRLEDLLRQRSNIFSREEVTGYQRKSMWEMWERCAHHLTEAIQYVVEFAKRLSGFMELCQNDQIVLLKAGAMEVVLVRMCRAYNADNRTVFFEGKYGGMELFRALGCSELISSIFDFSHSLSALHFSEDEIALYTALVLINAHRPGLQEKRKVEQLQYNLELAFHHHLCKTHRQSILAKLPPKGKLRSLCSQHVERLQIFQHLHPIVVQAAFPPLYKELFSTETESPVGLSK

[2] = target: T2, mouse RORγ (Mus musculus, UniProt P51450); experiment: Luciferase reporter gene assay of inhibitory effect against RORγ transcriptional activity (GAL4-mRORγ plasmid in CHO cells); assay type: cell-based
T2 construct: mouse, NM_011281.2 and from Ile251 to Lys516; expressed in transfected cells; host or cells: CHO cells (transient co-transfection with pG5-Luc reporter)
T2 sequence (P51450 251-516): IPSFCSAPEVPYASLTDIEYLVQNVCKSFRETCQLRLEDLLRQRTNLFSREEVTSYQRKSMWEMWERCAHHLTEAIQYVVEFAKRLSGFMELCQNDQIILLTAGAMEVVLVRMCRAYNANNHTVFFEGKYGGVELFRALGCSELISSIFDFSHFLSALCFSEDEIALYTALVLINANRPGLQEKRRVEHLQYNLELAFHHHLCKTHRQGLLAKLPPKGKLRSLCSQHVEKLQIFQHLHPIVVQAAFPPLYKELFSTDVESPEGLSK
Method in brief: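 Readout is intracellular luciferase after 2-day compound exposure (8 concentrations, 0.1% DMSO) in CHO cells expressing GAL4 fused to mouse RORγ LBD residues Ile251–Lys516 plus pG5-Luc reporter. EC50 fitted from %-of-control; points showing resazurin-detected cytotoxicity dropped.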

| SMILES | EC50 ([1]; read-out: LUC EC50 (μM) hRORg) [µM] | EC50 ([2]; read-out: LUC EC50 (μM) mRORg) [µM] | other results |
| --- | --- | --- | --- |
| Cc1c(Cl)cccc1NC(=O)CCc1nnc(CCN2CCCCC2)n1C1CC1 [Example F-169] | > 3 | > 3 | – |
| Cc1ccc(NC(=O)C[C@H](CCC(=O)O)c2noc(-c3csc(CC(C)C)n3)c2C2CC2)c(Cl)c1 [Example E-36] | > 3 | < 3 | – |
| Cc1ncccc1NC(=O)CCc1nnc(CCC(C)C)n1C1CC1 [Example F-91] | > 3 | > 3 | – |
| Cc1cccnc1NC(=O)CCc1nnc(CCC(C)C)n1C1CC1 [Example F-80] | > 3 | > 3 | – |
| Cc1c(Cl)cccc1NC(=O)CCc1nnc(CCOC(C)C)n1C1CC1 [Example F-218] | > 3 | < 3 | – |
| CCC(C)(C)C[C@H]1C[C@@H](c2onc([C@@H](CCC(=O)O)CC(=O)Nc3ccc(C)nc3C)c2C(F)(F)F)C1 [Example F-697] | – | – | EC50 ([1]; read-out: LUC EC50 hRORg): < 3 µM; EC50 ([2]; read-out: LUC EC50 mRORg): < 3 µM |
| CCn1c(CCC(=O)NC2CCCc3ccccc32)nnc1C1Cc2ccccc2C1 (stereo not drawn) [Example F-10] | – | – | EC50 ([1]; LUC EC50 (μM) hRORg): > 3 µM; EC50 ([2]; LUC EC50 (μM) mRORg): > 3 µM |
| Cc1ccc(NC(=O)CC(c2nnc([C@H]3C[C@@H](CC(C)C)C3)n2C2CC2)C2CNC2)c(C)c1 (mixture of isomers) [Example F-468] | > 3 | > 3 | – |
| Cc1c(Cl)cccc1NC(=O)CC(CCO)c1nnc(CCC2CCCCC2)n1C1CC1 (racemic) [Example F-247] | < 3 | < 3 | – |
| CC(=O)N[C@@H](CC(=O)Nc1ccc(C)cc1C)c1nnc(CCCC(C)(C)C)n1C1CC1 [Example F-344] | < 3 | < 3 | – |
| CC(=O)N1C[C@@H](C(=O)Nc2ccc(C)cc2C)[C@H](c2nnc(-c3ccc(CC(C)C)cc3)n2C2CC2)C1 [Example F-407] | > 3 | > 3 | – |
| CCOC(=O)CO[C@@H](CC(=O)Nc1ccc(C)cc1C)c1nnc([C@H]2C[C@@H](CC(C)C)C2)n1C1CC1 [Example F-433] | < 3 | < 3 | – |
| COc1ccc(F)cc1CNC(=O)CCc1nnc(CCC(C)C)n1C1CC1 [Example F-208] | > 3 | > 3 | – |
| Cc1ccc(NC(=O)C[C@H](CCc2nnn[nH]2)c2noc([C@H]3C[C@@H](CC(C)C)C3)c2C2CC2)c(C)c1 [Example F-644, (S)-3-[4-cyclopropyl-5-(3-isobutyl-cyclobutyl)-isoxazol-3-yl]-5-(1H-tetrazole-5-yl)-valeric acid (2,4-dimethyl-phenyl)-amide] | – | – | EC50 ([1]; read-out: LUC EC50 hRORg): < 3 µM; EC50 ([2]; read-out: LUC EC50 mRORg): < 3 µM |
| Cc1cc(Cl)ccc1NC(=O)C[C@H](CCO)c1nnc([C@H]2C[C@@H](CC(C)C)C2)n1C1CC1 [Example F-525] | – | – | EC50 ([1]; read-out: LUC EC50 hRORg): < 3 µM; EC50 ([2]; read-out: LUC EC50 mRORg): < 3 µM |
| CC1(Cc2cc(-c3onc([C@@H](CCC(=O)O)CC(=O)Nc4ccc(F)cc4Cl)c3C3CC3)no2)CC1 [Example E-63] | < 3 | < 3 | – |
| Cc1ccc(NC(=O)CCc2noc(C(O)c3cc(C(C)(C)C)no3)c2C2CC2)c(Cl)c1 (racemic) [Example F-744] | – | – | EC50 ([1]; read-out: LUC EC50 hRORg): > 3 µM; EC50 ([2]; read-out: LUC EC50 mRORg): < 3 µM |
| CC(C)CCc1nnc(CCC(=O)NCc2ccc(Cl)cc2)n1C1CC1 [Example F-122] | > 3 | > 3 | – |
| CC(C)(C)C(F)(F)c1cc(-c2onc([C@@H](CCC(=O)O)CC(=O)Nc3ccc(F)cc3Cl)c2C2CC2)no1 [Example E-48] | < 3 | < 3 | – |
| Cc1ccc(NC(=O)C[C@H](CCC(=O)O)c2noc(-c3cc(CCC(C)C)on3)c2C2CC2)c(F)c1 [Example E-09] | < 3 | < 3 | – |
| Cc1ccc(NC(=O)C[C@H](CCC(=O)O)c2noc(-c3cc(C(F)(F)CC(C)(C)C)on3)c2C2CC2)c(Cl)c1 [Example E-35] | < 3 | < 3 | – |
| Cc1ccc(NC(=O)CC(CC(=O)O)c2nnc(CCCC(C)C)n2C2CC2)c(C)c1 (racemic) [Example F-252] | > 3 | > 3 | – |
| Cc1ccc(NC(=O)CC(CCCN2C(=O)c3ccccc3C2=O)c2nnc(CCCC(C)C)n2C2CC2)c(C)c1 (racemic) [Example F-281] | < 3 | < 3 | – |
| Cc1c(Cl)cccc1NC(=O)CCc1nnc(CCC(=O)O)n1C1CC1 [Example F-185] | > 3 | > 3 | – |
| COc1cccc(C)c1NC(=O)CCc1nnc(CCC(C)C)n1C1CC1 [Example F-86] | > 3 | > 3 | – |
| C=CCC(CC(=O)Nc1ccc(C)cc1C)c1nnc(C(F)(F)CCC(C)(C)C)n1C1CC1 (racemic) [Example F-376] | < 3 | < 3 | – |

| SMILES | EC50 ([1]; read-out: LUC EC50 (μM) hRORg) [µM] | EC50 ([2]; read-out: LUC EC50 (μM) mRORg) [µM] | other results |
| --- | --- | --- | --- |
| Cc1ccc(NC(=O)[C@H]2CC(C)(O)C[C@@H]2c2nnc([C@H]3C[C@@H](CC(C)C)C3)n2C2CC2)c(C)c1 (single isomer, unassigned) [Example F-565] | – | – | EC50 ([1]; read-out: LUC EC50 hRORg): < 3 µM; EC50 ([2]; read-out: LUC EC50 mRORg): < 3 µM |
| Cc1ccc(NC(=O)C[C@H](CC(C)C)c2nnc(-c3cc(CC(C)C)on3)n2C2CC2)c(C)c1 [Example F-586] | – | – | EC50 ([1]; read-out: LUC EC50 hRORg): < 3 µM; EC50 ([2]; read-out: LUC EC50 mRORg): < 3 µM |
| Cc1c(Cl)cccc1NC(=O)CCc1nnc(C2CCCC(C)C2)n1C1CC1 (stereo not drawn) [Example F-135] | > 3 | < 3 | – |
| Cc1ccc(NC(=O)CCc2nnc(-c3ccc(O)cc3)n2C2CC2)c(C)c1 [Example F-442] | > 3 | > 3 | – |
| Cc1ccc(NC(=O)CCc2nnc(C3CC4(CCCC4)C3)n2C2CC2)c(C)c1 [Example F-420] | < 3 | < 3 | – |
| Cc1c(Cl)cccc1NC(=O)CCc1nnc(CC[C@H]2CC[C@H](C(=O)O)CC2)n1C1CC1 [Example F-243] | < 3 | > 3 | – |
| Cc1ccc(NC(=O)CCc2noc([C@H]3C[C@@H](CC(C)C)C3)c2CCC(=O)O)c(C)c1 [Example F-664] | – | – | EC50 ([1]; read-out: LUC EC50 hRORg): > 3 µM; EC50 ([2]; read-out: LUC EC50 mRORg): > 3 µM |
| Cc1ccc(NC(=O)CCc2nnc(CCC3CCC(F)(F)CC3)n2C2CC2)c(C)c1 [Example F-256] | < 3 | < 3 | – |
| CC(C)CCc1nnc(CCC(=O)NCCc2ccccc2)n1C1CC1 [Example F-58] | > 3 | > 3 | – |
| Cc1ccc(NC(=O)C[C@@H](C[C@H](O)CO)c2nnc(CCCC(C)C)n2C2CC2)c(C)c1 [Example F-342] | > 3 | > 3 | – |
| CCn1c(CCC(=O)Nc2cc(C)cc(C)c2)nnc1CCC(C)C [Example F-50] | > 3 | > 3 | – |
| Cc1ccc(NC(=O)CCc2noc(CCC3CCCCC3)c2C2CC2)c(C)c1 [Example F-494] | < 3 | < 3 | – |
| CC(=O)OCCC1(c2onc(CCC(=O)Nc3ccc(C)cc3Cl)c2C2CC2)CC(CC(C)(C)C)C1 (mixture of isomers) [Example F-737] | – | – | EC50 ([1]; read-out: LUC EC50 hRORg): > 3 µM; EC50 ([2]; read-out: LUC EC50 mRORg): > 3 µM |
| CC(C)Cn1c(CCC(=O)Nc2cccc3ccccc23)nnc1C1Cc2ccccc2C1 [Example F-11] | – | – | EC50 ([1]; LUC EC50 (μM) hRORg): > 3 µM; EC50 ([2]; LUC EC50 (μM) mRORg): > 3 µM |
| Cc1ccc(NC(=O)[C@H]2CN(C(=O)CN(C)C)C[C@@H]2c2nnc([C@H]3C[C@@H](CC(C)C)C3)n2C2CC2)c(C)c1 [Example F-657] | – | – | EC50 ([1]; read-out: LUC EC50 hRORg): > 3 µM; EC50 ([2]; read-out: LUC EC50 mRORg): < 3 µM |
| C=CCC(CC(=O)Nc1ccc(C)cc1C)c1nnc(CCCC(C)(C)C)n1CC(F)(F)F (racemic) [Example F-373] | < 3 | < 3 | – |
| Cc1cc(Cl)ccc1NC(=O)C[C@H](OC(C)C)c1nnc(-c2cc(CC(C)C)on2)n1C1CC1 [Example F-614] | – | – | EC50 ([1]; read-out: LUC EC50 hRORg): < 3 µM; EC50 ([2]; read-out: LUC EC50 mRORg): < 3 µM |
| Cc1ccc(NC(=O)C[C@H](CCC(=O)O)c2noc(-c3cc(C(C)(C)C(F)(F)F)on3)c2C2CC2)c(Cl)c1 [Example E-54] | < 3 | < 3 | – |
| Cc1cccc(CNC(=O)CCc2nnc(CCC(C)C)n2C2CC2)c1C [Example F-118] | > 3 | > 3 | – |
| CCn1c(CCC(=O)NCc2ccccc2C)nnc1CCC1CCCCC1 [Example F-41] | < 3 | < 3 | – |
| Cc1ccc(NC(=O)C[C@@H](CCO)c2nnc([C@H]3C[C@@H](CC(C)C)C3)n2C2CC2)c(C)c1 [Example F-360] | > 3 | > 3 | – |
| COc1cccc(CC(CC(=O)Nc2ccc(C)cc2C)c2nnc([C@H]3C[C@@H](CC(C)C)C3)n2C2CC2)n1 (mixture of isomers) [Example F-504] | – | – | EC50 ([1]; read-out: LUC EC50 hRORg): < 3 µM; EC50 ([2]; read-out: LUC EC50 mRORg): < 3 µM |
| CC(=O)N1C[C@H](C(=O)Nc2ccc(C)cc2C)[C@@H](c2nnc(C3CN(C(=O)N(C)C(C)C)C3)n2C2CC2)C1 (racemic) [Example F-419] | > 3 | > 3 | – |
| CC(C)(C)C[C@H]1C[C@@H](c2noc([C@@H](CCC(=O)O)CC(=O)Nc3ccc(Cl)cc3F)c2C2CC2)C1 [Example F-717] | – | – | EC50 ([1]; read-out: LUC EC50 hRORg): < 3 µM; EC50 ([2]; read-out: LUC EC50 mRORg): < 3 µM |
| Cc1c(Cl)cccc1NC(=O)CCc1nnc(CC[C@H]2CC[C@H](C(F)(F)F)CC2)n1C1CC1 [Example F-250] | > 3 | > 3 | – |
